Consider 24 compounds from patent publication US20230203058A1, “MACROCYCLIC DIAMINE DERIVATIVES AS ENT INHIBITORS FOR THE TREATMENT OF CANCERS, AND COMBINATION THEREOF WITH ADENOSINE RECEPTOR ANTAGONISTS” (ITEOS BELGIUM SA, priority 2020, published 2023).

The structures appear in SMILES notation. Some results are limits rather than exact numbers.

For the assay, the target named is T1, human ENT1 (Homo sapiens, UniProt Q99808).
T1 sequence (Q99808 1-456): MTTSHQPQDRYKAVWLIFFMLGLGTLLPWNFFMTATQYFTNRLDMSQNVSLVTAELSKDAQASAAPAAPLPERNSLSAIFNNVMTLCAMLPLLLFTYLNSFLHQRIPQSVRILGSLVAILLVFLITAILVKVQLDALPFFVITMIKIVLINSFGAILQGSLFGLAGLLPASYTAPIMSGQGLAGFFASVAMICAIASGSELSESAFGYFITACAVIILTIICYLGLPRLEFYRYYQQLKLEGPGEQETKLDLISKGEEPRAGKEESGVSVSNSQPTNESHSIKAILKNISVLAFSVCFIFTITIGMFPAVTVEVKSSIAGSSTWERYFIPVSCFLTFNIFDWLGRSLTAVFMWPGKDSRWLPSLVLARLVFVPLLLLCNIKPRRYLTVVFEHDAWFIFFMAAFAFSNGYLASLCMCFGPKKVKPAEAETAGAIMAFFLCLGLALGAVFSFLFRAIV
Nature of the assay: ENT1 binding assay (competition with Sahenta-DY647 on JAR cells). Set-up: JAR cells expressing ENT1 were bought from ATCC® (HTB-144TM); host or cells: JAR cells (human choriocarcinoma line; whole cells). To be noted: competition with Sahenta-DY647 100 nM, 4° C. The method, then: The present assay aims at showing that the compounds of the present invention can bind to human ENT1. The principle of the assay is a competition between the compounds of this invention and Sahenta-DY647, an ENT1 inhibitor that emits fluorescence (Ex = 630 nm, Em = 670 nm). By measuring the fluorescence at the end of the assay we could assess the binding potency of the compounds of the present invention.
JAR cells expressing ENT1 were bought from ATCC® (HTB-144TM). Cells were cultured in RPMI 1640 medium (LONZA®, #BE12-702F/U1) supplemented with 10% FBS (GIBCO®, #10270-106), 10 mM Hepes (LONZA®, #BE17-737E), 1 mM Sodium Pyruvate (LONZA®, #BE13-115E) and 2% Penicillin/Streptomycin (LONZA®, #DE17-603E) at 37° C. and 5% CO2. The assay was conducted on the following buffer: HBSS (LONZA®, #LO-527F) supplemented with 10 mM Hepes (LONZA®, #BE17-737E) and 0.1% BSA (Miltenyi®, #130-091-376) on the day of the assay. JAR cells were resuspended in the described buffer. Compounds of the present invention and Sahenta-DY647 were diluted 200X in the described buffer.
A total of 50000 cells were pre-incubated for 30 min at 4° C. with the compounds of the present invention before adding the corresponded IC90 of Sahenta-DY647 (100 nM) and incubate once more for 30 min at 4° C. The total volume of the reaction was 100 µL (50 µL of cells, 25 µL of the compounds of the present invention and 25 µL of Sahenta-DY647) in a 96 well plate, U-bottom (Greiner®, #650-180). The plates were washed 2X by centrifugation (4 min, 400 rcf at 4° C.) in the same buffer. Cells were resuspended in 70 µL of the buffer and 50 µL was transferred to a Black 384 Optiplate (PerkinElmer®, #6007279). Fluorescence (Ex = 630 nm, Em = 670 nm) was acquired on a Spectramax i3x (Molecular Devices®).
What is called IC50 is the concentration at which inhibition is half-maximal. High values mean a need for much substance, low ones inhibition by little substance. `COc1cc2cc(c1OC)OCCC[C@@H](OC(=O)c1ccccc1)CCN(C)CCN(C)CCCOC2=O` [Compound 35, (R)-15,16-dimethoxy-9,12-dimethyl-17-oxo-2,16-dioxa-9,12-diaza-1(1,3)-benzenacycloheptadecaphane-6-yl benzoate] had an IC50 of 0.001 to 0.02 µM. `COc1cc2cc(c1OC)OCCCC(O)CCN1CCCN(CCCOC2=O)CC1` (stereo not drawn) [Compound 38, 12-hydroxy-74,75-dimethoxy-5,8-dioxa-1(1,4)-diazepana-7(1,3)-benzenacyclotetradecaphan-6-one] yielded an IC50 of more than 0.5 µM. Then `COc1cc2cc(c1OC)OCCC[C@H](O)CCN1CCCN(CCCOC2=O)CC1` [Compound 40, (12S)-12-hydroxy-74,75-dimethoxy-5,8-dioxa-1(1,4)-diazepana-7(1,3)-benzenacyclotetradecaphan-6-one], with more than 0.5 µM; and `COc1cc2cc(c1OC)OCCCC(OC(=O)c1ccc(O)cc1)CCN1CCCN(CCCOC2=O)CC1` (stereo not drawn) [Compound 41, 74,75-dimethoxy-6-oxo-5,8-dioxa-1(1,4)-diazepana-7(1,3)-benzenacyclotetradecaphane-12-yl 4-hydroxybenzoate], with 0.001 to 0.02 µM; and `COc1cc2cc(c1OC)OCCCC(OC(=O)c1cccc(C(F)(F)F)c1)CCN1CCCN(CCCOC2=O)CC1` (stereo not drawn) [Compound 44, 74,75-dimethoxy-6-oxo-5,8-dioxa-1(1,4)-diazepana-7(1,3)-benzenacyclotetradecaphane-12-yl 3-(trifluoromethyl)benzoate], with 0.001 to 0.02 µM. As for `COc1cc2cc(c1OC)OCCCC(OC(=O)c1cccc(S(C)(=O)=O)c1)CCN1CCCN(CCCOC2=O)CC1` (stereo not drawn) [Compound 45, 74,75-dimethoxy-6-oxo-5,8-dioxa-1(1,4)-diazepana-7(1,3)-benzenacyclotetradecaphane-12-yl 3-(methylsulfonyl)benzoate], the figure is 0.001 to 0.02 µM. `COc1cc2cc(c1OC)OCCCC(OC(=O)c1ccccc1F)CCN1CCCN(CCCOC2=O)CC1` (stereo not drawn) [Compound 47, 74,75-dimethoxy-6-oxo-5,8-dioxa-1(1,4)-diazepana-7(1,3)-benzenacyclotetradecaphane-12-yl 2-fluorobenzoate] had an IC50 of 0.001 to 0.02 µM. Then `COc1cc2cc(c1OC)OCCCC(OC(=O)c1ccc(Br)c(C#N)c1)CCN1CCCN(CCCOC2=O)CC1` (stereo not drawn) [Compound 48, 74,75-dimethoxy-6-oxo-5,8-dioxa-1(1,4)-diazepana-7(1,3)-benzenacyclotetradecaphane-12-yl 4-bromo-3-cyanobenzoate], with 0.001 to 0.02 µM; and `COc1cc2cc(c1OC)OCCCC(OC(=O)c1cc(C)cc(C(F)(F)F)c1)CCN1CCCN(CCCOC2=O)CC1` (stereo not drawn) [Compound 49, 74,75-dimethoxy-6-oxo-5,8-dioxa-1(1,4)-diazepana-7(1,3)-benzenacyclotetradecaphane-12-yl 3-methyl-5-(trifluoromethyl)benzoate], with 0.02 to 0.5 µM. The compound `COc1ccc(C(=O)OC2CCCOc3cc(cc(OC)c3OC)C(=O)OCCCN3CCCN(CC2)CC3)c(F)c1` (stereo not drawn) [Compound 50, 74,75-dimethoxy-6-oxo-5,8-dioxa-1(1,4)-diazepana-7(1,3)-benzenacyclotetradecaphane-12-yl 2-fluoro-4-methoxybenzoate] returned an IC50 of 0.001 to 0.02 µM. As for `COc1ccc(C(=O)OC2CCCOc3cc(cc(OC)c3OC)C(=O)OCCCN3CCCN(CC2)CC3)c(OC(F)(F)F)c1` (stereo not drawn) [Compound 51, 74,75-dimethoxy-6-oxo-5,8-dioxa-1(1,4)-diazepana-7(1,3)-benzenacyclotetradecaphane-12-yl 4-methoxy-2-(trifluoromethoxy)benzoate], the figure is 0.02 to 0.5 µM. Then `COc1cc2cc(c1OC)OCCCC(OC(=O)c1cccnc1)CCN1CCCN(CCCOC2=O)CC1` (stereo not drawn) [Compound 53, 74,75-dimethoxy-6-oxo-5,8-dioxa-1(1,4)-diazepana-7(1,3)-benzenacyclotetradecaphane-12-yl nicotinate], with 0.001 to 0.02 µM; and `COc1cc2cc(c1OC)OCCCC(OC(=O)c1ccc(O)nc1)CCN1CCCN(CCCOC2=O)CC1` (stereo not drawn) [Compound 55, 74,75-dimethoxy-6-oxo-5,8-dioxa-1(1,4)-diazepana-7(1,3)-benzenacyclotetradecaphane-12-yl 6-hydroxynicotinate], with 0.001 to 0.02 µM. As for `COc1cc2cc(c1OC)OCCCC(OC(=O)c1cccc3ncccc13)CCN1CCCN(CCCOC2=O)CC1` (stereo not drawn) [Compound 56, 74,75-dimethoxy-6-oxo-5,8-dioxa-1(1,4)-diazepana-7(1,3)-benzenacyclotetradecaphane-12-yl quinoline-5-carboxylate], the figure is 0.001 to 0.02 µM; as for `COc1cc2cc(c1OC)OCCCC(OC(=O)c1cocn1)CCN1CCCN(CCCOC2=O)CC1` (stereo not drawn) [Compound 57, 74,75-dimethoxy-6-oxo-5,8-dioxa-1(1,4)-diazepana-7(1,3)-benzenacyclotetradecaphane-12-yl oxazole-4-carboxylate], 0.001 to 0.02 µM; as for `COc1cc2cc(c1OC)OCCCC(OC(=O)CC(C)C)CCN1CCCN(CCCOC2=O)CC1` (stereo not drawn) [Compound 61, 74,75-dimethoxy-6-oxo-5,8-dioxa-1(1,4)-diazepana-7(1,3)-benzenacyclotetradecaphane-12-yl 3-methylbutanoate], 0.02 to 0.5 µM. Consider `COc1cc2cc(c1OC)OCCCC(OC(=O)CCC(F)(F)F)CCN1CCCN(CCCOC2=O)CC1` (stereo not drawn) [Compound 62, 74,75-dimethoxy-6-oxo-5,8-dioxa-1(1,4)-diazepana-7(1,3)-benzenacyclotetradecaphane-12-yl 4,4,4-trifluorobutanoate], for which the IC50 fell in the range of 0.001 to 0.02 µM.

For the compound `COc1cc2cc(c1OC)OCCCC(OC(=O)C1CCCCC1)CCN1CCCN(CCCOC2=O)CC1` (stereo not drawn) [Compound 63, 74,75-dimethoxy-6-oxo-5,8-dioxa-1(1,4)-diazepana-7(1,3)-benzenacyclotetradecaphane-12-yl cyclohexanecarboxylate], the IC50 was 0.001 to 0.02 µM.

Compound `COc1cc2cc(c1OC)OCCCC(OC(=O)C1CCN(C)CC1)CCN1CCCN(CCCOC2=O)CC1` (stereo not drawn) [Compound 64, 74,75-dimethoxy-6-oxo-5,8-dioxa-1(1,4)-diazepana-7(1,3)-benzenacyclotetradecaphane-12-yl 1-methylpiperidine-4-carboxylate] displayed a half-inhibitory concentration (IC50) of more than 0.5 µM. `COc1cc2cc(c1OC)OCCCC(OC(=O)C1CC(C)(C)C1)CCN1CCCN(CCCOC2=O)CC1` (stereo not drawn) [Compound 65, 74,75-dimethoxy-6-oxo-5,8-dioxa-1(1,4)-diazepana-7(1,3)-benzenacyclotetradecaphane-12-yl 3,3-dimethylcyclobutane-1-carboxylate] showed an IC50 of 0.02 to 0.5 µM. As for `COc1cc2cc(c1OC)OCCCC(OC(=O)CC1COC1)CCN1CCCN(CCCOC2=O)CC1` (stereo not drawn) [Compound 66, 74,75-dimethoxy-6-oxo-5,8-dioxa-1(1,4)-diazepana-7(1,3)-benzenacyclotetradecaphane-12-yl 2-(oxetan-3-yl)acetate], the figure is 0.001 to 0.02 µM; as for `COc1cc2cc(c1OC)OCCCC(OC(=O)[C@H]1[C@@H]3COC[C@@H]31)CCN1CCCN(CCCOC2=O)CC1` (stereo partly drawn) [Compound 67, 74,75-dimethoxy-6-oxo-5,8-dioxa-1(1,4)-diazepana-7(1,3)-benzenacyclotetradecaphane-12-yl (1R,5S,6r)-3-oxabicyclo[3.1.0]hexane-6-carboxylate], 0.02 to 0.5 µM; as for `COc1cc2cc(c1OC)OCCCC(OC(=O)C1CNC(=O)C1)CCN1CCCN(CCCOC2=O)CC1` (stereo not drawn) [Compound 68, 74,75-dimethoxy-6-oxo-5,8-dioxa-1(1,4)-diazepana-7(1,3)-benzenacyclotetradecaphane-12-yl 5-oxopyrrolidine-3-carboxylate], 0.001 to 0.02 µM. Then `COc1cc2cc(c1OC)OCCCC(OC(=O)C1CC(=O)N(Cc3ccccc3)C1)CCN1CCCN(CCCOC2=O)CC1` (stereo not drawn) [Compound 69, 74,75-dimethoxy-6-oxo-5,8-dioxa-1(1,4)-diazepana-7(1,3)-benzenacyclotetradecaphane-12-yl 1-benzyl-5-oxopyrrolidine-3-carboxylate], with 0.001 to 0.02 µM.
